These results are taken from patent publication US11000555B2, “Method for preparing a limax compound and therapeutic use thereof” (GUANGXI JIUFU BIOTECHNOLOGY CO., LTD, priority 2017, dated 2021).

Marks after values point to notes of the source that are not given here.

One data set in a line: Solubility. Format: physicochemical.
The test system of the next data set is mice. Briefly: Mouse spontaneous activity test. Format: in vivo, Kunming mice. As for the experimental part: Forty Kunming mice, half males and half females, were fasted for 12 h but free to drink water. The mice were randomly divided into four groups: a blank control group, a low does Compound group (0.4 g/kg, ig), a high dose Compound group (0.8 g/kg, ig) and a positive drug control group (Estazolam, 2 mg/kg). The mice were placed into the YLS-1A multifunctional recorder for spontaneous activities of small animals. After 5 minutes of adaptation, the number of the mice's spontaneous activities before administration were recorded, and the recording lasted for 10 minutes. The room was kept quiet during recording, at a room temperature of 20-24° C. After this, each group of mice was administered according to the above doses, and the number of spontaneous activities within 10 min were recorded 45 min later. The blank control group was given the same volume of normal saline (ig).

`CC1(C)O[C@H]2CC[C@@]3(C)[C@@H]([C@@H](O)[C@H](O)[C@@H]3[C@@](C)(O)CC[C@@H]3OC(C)(C)[C@H]4CC[C@]3(C)O4)[C@]2(C)CC[C@H]1O` [the compound, limaxol A]: the solubility result in the data set “Solubility” (in acid and alkali) is “insoluble”; in the data set “Solubility” (in ethanol, ethyl acetate, trichloromethane (hot)), “soluble”; in the data set “Solubility” (in methanol, acetone), “easily soluble”; in the data set “Solubility” (in trichloromethane (cold)) it was “slightly soluble”; in the data set “Solubility” (in water), “insoluble”. Further, in the data set on mice (0.4, 0.8 g/kg, ig), the “Effect on spontaneous activity of mice” value is given as “significantly reduce the spontaneous activity of mice”. The “Number of spontaneous activities” value is on record as 84.8 ± 31.69*^Δ▴ per 10 min in the data set with mice (After administration (45 min), high dose 0.8 g/kg ig); 104.6 ± 42.12^Δ▴▴ per 10 min in the data set on mice (After administration (45 min), low dose 0.4 g/kg ig); 145.5 ± 82.57 per 10 min in the data set with mice (Before administration, high dose group); 165.5 ± 69.20 per 10 min with mice (Before administration, low dose group).
